Laboratory results published in US11325917B2, “Thienopyrazine carboxamides as ubiquitin-specific protease inhibitors” (Valo Health, Inc., priority 2016, dated 2022).

Assays:
USP28 = USP28 (Homo sapiens (Human), UniProt Q96RU2); test: Ubiquitin-Rhodamine 110 Assay for USP28 Activity; type: biochemical; conditions: Ub-Rh110 substrate 25 nM
Experimental: Each assay was performed in a final volume of 20 μL in assay buffer containing 20 mM Tris-HCl (pH 8.0, (1M Tris-HCl, pH 8.0 solution; Corning 46-031-CM)), 2 mM CaCl2 (1M Calcium Chloride solution; Sigma #21114) 2 mM BME (2-Mercaptoethanol; Sigma 63689-25ML-F), 0.01% Prionex ([…] filtered, Sigma #G-0411), and 0.01% Triton X-100. Stock compound solutions were stored at −20° C. as 10 mM in DMSO. Up to 1 month prior to the assay, 2 mM test compounds were pre-dispensed into assay plates (Black, low volume; Corning #3820) and frozen at −20° C. Prestamped assay plates were allowed to come to room temperature on the day of the assay. […] Plates were incubated stacked for 90 minutes at room temperature before fluorescence was read on the Envision (Excitation at 485 nm and Emission at 535 nm; Perkin Elmer) or on the PheraSTAR (Excitation at 485 nm and Emission at 535 nm; BMG Labtech).
For follow-up studies, Each assay was performed in a final volume of 15 μL in assay buffer containing 20 mM Tris-HCl (pH 8.0, (1M Tris-HCl, pH 8.0 solution; Corning 46-031-CM)), 3 mM BME (2-Mercaptoethanol; Sigma 63689-25ML-F), 0.03% BGG ([…] filtered, Sigma, G7516-25G), and 0.01% Triton X-100 (Sigma, T9284-10L). […] Fluorescence was read on the Envision (Excitation at 485 nm and Emission at 535 nm; Perkin Elmer) or on the PheraSTAR (Excitation at 485 nm and Emission at 535 nm; BMG Labtech). […]

USP25 = USP25 (Homo sapiens (Human), UniProt Q9UHP3); test: Ubiquitin-Rhodamine 110 Assay for USP25 Activity; type: biochemical; conditions: Ub-Rh110 substrate 25 nM
Sequence of USP25 (Q9UHP3 whole entry): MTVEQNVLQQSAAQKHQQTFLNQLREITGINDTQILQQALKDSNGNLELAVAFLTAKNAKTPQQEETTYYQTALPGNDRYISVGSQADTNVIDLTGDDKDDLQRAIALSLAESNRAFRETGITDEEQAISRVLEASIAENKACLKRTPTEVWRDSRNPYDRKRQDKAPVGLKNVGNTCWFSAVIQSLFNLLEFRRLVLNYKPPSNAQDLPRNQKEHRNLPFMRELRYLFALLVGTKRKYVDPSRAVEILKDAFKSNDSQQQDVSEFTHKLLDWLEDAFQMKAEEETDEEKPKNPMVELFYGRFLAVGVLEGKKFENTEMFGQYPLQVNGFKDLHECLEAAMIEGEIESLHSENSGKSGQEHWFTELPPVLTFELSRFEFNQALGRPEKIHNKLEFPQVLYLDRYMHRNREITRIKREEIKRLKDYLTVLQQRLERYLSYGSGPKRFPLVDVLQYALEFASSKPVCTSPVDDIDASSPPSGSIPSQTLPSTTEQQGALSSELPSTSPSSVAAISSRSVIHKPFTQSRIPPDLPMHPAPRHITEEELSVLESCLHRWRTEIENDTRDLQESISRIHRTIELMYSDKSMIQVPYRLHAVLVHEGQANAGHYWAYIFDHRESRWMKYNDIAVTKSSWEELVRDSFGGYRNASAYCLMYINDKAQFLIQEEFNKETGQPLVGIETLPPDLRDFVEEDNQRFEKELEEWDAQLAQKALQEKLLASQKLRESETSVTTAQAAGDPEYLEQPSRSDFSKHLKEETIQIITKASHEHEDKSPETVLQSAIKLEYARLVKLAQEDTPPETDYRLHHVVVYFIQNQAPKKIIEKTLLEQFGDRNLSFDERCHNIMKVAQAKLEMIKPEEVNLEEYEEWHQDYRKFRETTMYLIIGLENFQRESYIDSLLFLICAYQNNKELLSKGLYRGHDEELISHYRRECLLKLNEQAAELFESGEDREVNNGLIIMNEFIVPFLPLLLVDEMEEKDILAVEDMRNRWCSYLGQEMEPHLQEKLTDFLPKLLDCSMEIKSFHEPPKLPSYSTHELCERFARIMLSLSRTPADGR
Experimental: The assay was performed in a final volume of 9 μL in assay buffer containing 20 mM Tris-HCl (pH 8.0, (1M Tris-HCl, pH 8.0 solution; Corning 46-031-CM)), 3 mM BME (2-Mercaptoethanol; Sigma 63689-25ML-F), 0.03% BGG (0.22 μM filtered, Sigma, G7516-25G), and 0.01% Triton X-100 (Sigma, T9284-10L). Nanoliter quantities of 10-point, 3-fold serial dilution in DMSO was pre-dispensed into 1536 assay plates (Corning, #3724BC) for a final test concentration of 25 μM to 1.3 nM, top to lowest dose, respectively. Enzyme USP25, construct USP25-His6, (Boston Biochem E-546). […] Fluorescence was read on the Envision (Excitation at 485 nm and Emission at 535 nm; Perkin Elmer) or on the PheraSTAR (Excitation at 485 nm and Emission at 535 nm; BMG Labtech).
For both the USP28 and USP25 assay formats Data were reported as percent inhibition compared with control wells based on the following equation: % inh=1−((FLU−AveLow)/(AveHigh−AveLow)) where FLU=measured Fluorescence, AveLow=average Fluorescence of no enzyme control (n=16), and AveHigh=average Fluorescence of DMSO control (n=16). IC50 values were determined by curve fitting of the standard 4 parameter logistic fitting algorithm included in the Activity Base software package: IDBS XE Designer Model205. […]

Sequence of USP28 (Q96RU2 whole entry): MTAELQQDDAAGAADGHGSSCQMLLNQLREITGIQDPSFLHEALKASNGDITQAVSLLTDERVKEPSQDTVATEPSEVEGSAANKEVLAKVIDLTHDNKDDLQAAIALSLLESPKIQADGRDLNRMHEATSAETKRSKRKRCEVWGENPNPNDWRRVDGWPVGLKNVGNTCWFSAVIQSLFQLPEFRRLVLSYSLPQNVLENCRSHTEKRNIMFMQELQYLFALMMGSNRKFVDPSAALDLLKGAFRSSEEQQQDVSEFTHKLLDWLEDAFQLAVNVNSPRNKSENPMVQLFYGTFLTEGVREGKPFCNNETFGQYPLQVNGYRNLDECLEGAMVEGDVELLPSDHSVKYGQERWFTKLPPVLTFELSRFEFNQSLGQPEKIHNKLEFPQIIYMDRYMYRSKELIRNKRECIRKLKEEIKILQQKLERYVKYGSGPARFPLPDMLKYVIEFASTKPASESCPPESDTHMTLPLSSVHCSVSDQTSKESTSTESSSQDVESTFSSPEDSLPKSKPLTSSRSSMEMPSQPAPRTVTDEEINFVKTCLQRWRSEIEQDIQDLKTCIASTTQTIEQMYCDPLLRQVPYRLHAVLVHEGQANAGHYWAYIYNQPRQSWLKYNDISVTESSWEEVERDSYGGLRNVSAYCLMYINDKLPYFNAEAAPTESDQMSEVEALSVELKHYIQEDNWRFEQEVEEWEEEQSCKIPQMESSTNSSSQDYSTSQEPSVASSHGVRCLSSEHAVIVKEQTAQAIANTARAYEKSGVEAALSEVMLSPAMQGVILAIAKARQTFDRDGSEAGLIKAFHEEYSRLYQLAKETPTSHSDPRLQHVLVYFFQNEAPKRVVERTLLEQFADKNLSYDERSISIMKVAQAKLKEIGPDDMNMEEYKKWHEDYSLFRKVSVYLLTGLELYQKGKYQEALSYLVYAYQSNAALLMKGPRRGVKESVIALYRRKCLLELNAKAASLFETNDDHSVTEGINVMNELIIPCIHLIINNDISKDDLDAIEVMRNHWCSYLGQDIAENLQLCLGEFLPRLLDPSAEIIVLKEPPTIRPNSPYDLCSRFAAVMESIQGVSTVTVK

`Cc1cnc2c(N)c(C(=O)NCCc3cc(F)c(N4CC5CNCC(C4)O5)cc3F)sc2n1` [Compound I-20] was tested, and the IC50 (USP28) was < 200 nM and the IC50 (USP25) was < 200 nM.
